# Assay results from ChEMBL document CHEMBL1201862, “PubChem BioAssay data set” (2004).
# Activity calls are given as the source filed them. Positions of bridges follow the written chain, without caps; N, C: chain ends. Non-standard residues stand in square brackets, D forms with d. Residues, ends and D or L forms follow the SMILES beside them. *: point of attachment. X1 = CCC(C)C(N)C1=NC(C(=O)*)CS1; dOrn = NCCC[C@@H](N)C(=O)O
# How the values were obtained:
# [1] = system: HEK293; assay: cells; assay type: functional, cell-based; conditions: Homo sapiens
# [2] = target: Nuclear receptor subfamily 0 group B member 1 (Homo sapiens, UniProt P51843); assay: Luminescence-based cell-based high throughput dose response assay for inhibitors of the orphan nuclear receptor subfamily 0, group B, member 1 (DAX1; NR0B1). [Related pubchem assays (depositor defined):AID504766, AID504790]; assay type: functional
# Sequence of Nuclear receptor subfamily 0 group B member 1 (P51843 whole entry): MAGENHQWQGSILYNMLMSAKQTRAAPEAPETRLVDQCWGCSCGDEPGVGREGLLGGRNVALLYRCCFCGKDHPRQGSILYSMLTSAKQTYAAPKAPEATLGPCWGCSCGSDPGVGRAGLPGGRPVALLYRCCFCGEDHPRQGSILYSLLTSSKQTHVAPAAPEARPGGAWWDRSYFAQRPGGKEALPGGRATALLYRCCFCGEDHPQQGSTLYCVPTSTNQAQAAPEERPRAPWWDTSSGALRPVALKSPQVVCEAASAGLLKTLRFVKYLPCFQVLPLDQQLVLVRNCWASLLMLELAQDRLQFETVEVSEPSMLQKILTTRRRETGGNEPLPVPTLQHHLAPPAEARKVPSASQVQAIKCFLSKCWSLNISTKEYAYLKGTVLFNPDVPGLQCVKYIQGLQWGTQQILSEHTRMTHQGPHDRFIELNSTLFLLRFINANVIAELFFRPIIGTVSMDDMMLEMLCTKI
# [3] = target: T1, Acyl-homoserine lactone acylase PvdQ (Pseudomonas aeruginosa (strain LESB58), UniProt Q9I194); assay: P. aeruginosa PvdQ acylase inhibitors, dose response, biochemical, fluorescence, plate reader and imaging, cherry-picks (AID 493231)
# T1 sequence (Q9I194 whole entry): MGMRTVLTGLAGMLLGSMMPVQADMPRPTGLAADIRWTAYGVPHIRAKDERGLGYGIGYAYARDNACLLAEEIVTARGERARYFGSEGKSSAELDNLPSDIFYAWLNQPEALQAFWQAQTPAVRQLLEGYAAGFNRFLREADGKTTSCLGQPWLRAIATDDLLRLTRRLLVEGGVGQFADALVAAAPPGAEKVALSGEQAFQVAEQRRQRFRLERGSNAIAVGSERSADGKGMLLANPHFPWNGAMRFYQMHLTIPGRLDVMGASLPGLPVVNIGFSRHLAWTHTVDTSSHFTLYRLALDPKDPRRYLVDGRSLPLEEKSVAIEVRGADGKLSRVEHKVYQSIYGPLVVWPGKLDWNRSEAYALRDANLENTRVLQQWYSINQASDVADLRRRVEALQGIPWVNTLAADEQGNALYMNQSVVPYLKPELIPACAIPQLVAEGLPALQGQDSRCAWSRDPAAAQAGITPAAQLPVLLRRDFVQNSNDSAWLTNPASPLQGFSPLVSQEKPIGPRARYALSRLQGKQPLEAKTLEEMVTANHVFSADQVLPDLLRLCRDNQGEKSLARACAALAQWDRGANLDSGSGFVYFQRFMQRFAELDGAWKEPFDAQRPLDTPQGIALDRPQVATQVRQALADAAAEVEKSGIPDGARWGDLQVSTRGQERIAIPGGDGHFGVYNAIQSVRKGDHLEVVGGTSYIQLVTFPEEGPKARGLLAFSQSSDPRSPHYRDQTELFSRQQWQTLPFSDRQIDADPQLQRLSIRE
# [4] = system: HeLa; assay: HeLa cell cytotoxicity, dose response, cytotoxicity control, 48 h, plate reader, cherry-picks (AID 504942); assay type: functional, cell-based; conditions: Homo sapiens
# [5] = target: T2, Apoptotic protease-activating factor 1 (Homo sapiens, UniProt O14727); assay type: functional
# T2 sequence (O14727 whole entry): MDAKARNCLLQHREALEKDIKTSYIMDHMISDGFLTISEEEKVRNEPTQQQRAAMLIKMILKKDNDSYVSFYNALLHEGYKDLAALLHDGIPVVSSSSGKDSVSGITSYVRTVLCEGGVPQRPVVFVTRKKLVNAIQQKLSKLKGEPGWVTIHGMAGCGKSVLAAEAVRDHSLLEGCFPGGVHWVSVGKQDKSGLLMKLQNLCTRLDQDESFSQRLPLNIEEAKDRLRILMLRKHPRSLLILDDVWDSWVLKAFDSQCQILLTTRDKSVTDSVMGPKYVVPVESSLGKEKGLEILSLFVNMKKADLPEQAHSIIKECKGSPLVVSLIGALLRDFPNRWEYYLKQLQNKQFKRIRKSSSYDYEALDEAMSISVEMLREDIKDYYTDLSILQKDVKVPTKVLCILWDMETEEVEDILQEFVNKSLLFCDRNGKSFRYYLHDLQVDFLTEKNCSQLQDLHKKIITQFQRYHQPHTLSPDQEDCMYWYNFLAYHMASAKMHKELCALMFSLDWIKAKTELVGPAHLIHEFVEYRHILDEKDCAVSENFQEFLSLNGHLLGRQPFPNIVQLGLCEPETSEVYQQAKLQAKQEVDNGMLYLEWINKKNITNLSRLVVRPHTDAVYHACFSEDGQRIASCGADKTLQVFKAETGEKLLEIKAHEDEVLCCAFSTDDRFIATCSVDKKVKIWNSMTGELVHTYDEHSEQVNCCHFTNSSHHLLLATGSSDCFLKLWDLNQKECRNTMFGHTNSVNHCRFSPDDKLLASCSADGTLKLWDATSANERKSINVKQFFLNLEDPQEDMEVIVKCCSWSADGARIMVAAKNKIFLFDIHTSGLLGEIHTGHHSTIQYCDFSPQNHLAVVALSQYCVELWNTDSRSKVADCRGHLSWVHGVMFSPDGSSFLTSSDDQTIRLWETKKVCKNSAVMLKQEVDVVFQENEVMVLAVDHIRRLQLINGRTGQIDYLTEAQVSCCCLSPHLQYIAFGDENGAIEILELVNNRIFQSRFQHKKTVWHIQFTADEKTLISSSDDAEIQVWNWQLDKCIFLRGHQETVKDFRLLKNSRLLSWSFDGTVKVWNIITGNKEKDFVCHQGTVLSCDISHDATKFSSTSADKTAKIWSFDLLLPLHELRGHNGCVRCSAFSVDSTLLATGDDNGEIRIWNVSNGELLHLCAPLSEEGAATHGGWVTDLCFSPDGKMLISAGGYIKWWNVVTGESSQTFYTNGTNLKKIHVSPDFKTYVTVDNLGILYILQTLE
# [6] = system: A-375; assay: MITF: Counter assay: A375 proliferation Measured in Cell-Based System Using Plate Reader - 2084-03_Inhibitor_Dose_DryPowder_Activity. [Related pubchem assays (depositor defined):AID488944]; assay type: functional; conditions: Homo sapiens
# [7] = target: T3, Microphthalmia-associated transcription factor (Homo sapiens, UniProt O75030); assay: TRPM1 promoter luciferase signal decrease, dose response, MITF inhibitor project, cell-based, SK-MEL-5, cherry-picked, set 3 (AID 493073); assay type: functional
# T3 sequence (O75030 whole entry): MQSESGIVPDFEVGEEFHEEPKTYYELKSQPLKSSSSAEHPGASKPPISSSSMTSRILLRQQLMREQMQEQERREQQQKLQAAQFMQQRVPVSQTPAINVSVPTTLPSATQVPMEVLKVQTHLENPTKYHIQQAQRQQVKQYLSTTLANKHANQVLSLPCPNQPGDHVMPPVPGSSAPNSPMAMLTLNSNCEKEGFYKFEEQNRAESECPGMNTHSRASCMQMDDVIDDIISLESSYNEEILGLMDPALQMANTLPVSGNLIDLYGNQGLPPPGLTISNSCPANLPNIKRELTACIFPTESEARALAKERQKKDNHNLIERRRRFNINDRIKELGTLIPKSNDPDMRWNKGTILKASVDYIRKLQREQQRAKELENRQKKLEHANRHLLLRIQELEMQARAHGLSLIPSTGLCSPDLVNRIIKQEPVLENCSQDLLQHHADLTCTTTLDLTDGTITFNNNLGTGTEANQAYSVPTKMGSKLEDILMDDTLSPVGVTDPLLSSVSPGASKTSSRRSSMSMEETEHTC
# [8] = target: T4, Protein RecA (Mycobacterium tuberculosis, UniProt P9WHJ3); assay: Fluorescence Cell-Free Homogeneous Dose Retest to Identify Inhibitors of RecA-Intein Splicing Activity. [Related pubchem assays (depositor defined):AID2097, AID2223, AID489010, AID492950]; assay type: functional
# T4 sequence (P9WHJ3 whole entry): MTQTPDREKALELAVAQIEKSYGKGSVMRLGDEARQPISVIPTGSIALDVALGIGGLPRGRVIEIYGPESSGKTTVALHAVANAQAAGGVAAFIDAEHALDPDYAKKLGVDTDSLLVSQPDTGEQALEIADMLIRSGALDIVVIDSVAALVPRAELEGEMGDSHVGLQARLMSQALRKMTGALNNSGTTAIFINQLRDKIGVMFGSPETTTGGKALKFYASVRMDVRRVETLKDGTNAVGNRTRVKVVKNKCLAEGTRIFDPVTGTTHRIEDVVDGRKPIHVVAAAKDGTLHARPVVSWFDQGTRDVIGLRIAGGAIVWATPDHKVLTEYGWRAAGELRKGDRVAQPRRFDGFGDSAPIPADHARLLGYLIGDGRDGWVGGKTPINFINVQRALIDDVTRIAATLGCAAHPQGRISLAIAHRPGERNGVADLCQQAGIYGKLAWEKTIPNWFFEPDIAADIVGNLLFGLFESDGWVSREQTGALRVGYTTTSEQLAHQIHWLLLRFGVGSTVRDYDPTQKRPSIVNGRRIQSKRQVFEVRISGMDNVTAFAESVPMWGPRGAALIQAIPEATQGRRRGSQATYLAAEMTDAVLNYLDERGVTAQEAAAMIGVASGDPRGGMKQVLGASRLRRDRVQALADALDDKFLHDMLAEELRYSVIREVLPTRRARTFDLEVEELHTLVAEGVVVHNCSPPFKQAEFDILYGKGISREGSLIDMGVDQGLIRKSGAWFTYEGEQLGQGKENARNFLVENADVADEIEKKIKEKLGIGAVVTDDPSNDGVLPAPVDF
# [9] = Luminescence Cell-Based Dose Retest to Confirm Inhibitors of Cancer Stem Cells. [Related pubchem assays (depositor defined):AID2717, AID2721]; assay type: functional; conditions: Homo sapiens
# [10] = target: T5, Replicative DNA helicase DnaB (Mycobacterium tuberculosis, UniProt P9WMR3); assay: DnaB intein splicing inhibitors, dose response, biochemical, cell-free fluorescence (AID 449749); assay type: functional
# T5 sequence (P9WMR3 whole entry): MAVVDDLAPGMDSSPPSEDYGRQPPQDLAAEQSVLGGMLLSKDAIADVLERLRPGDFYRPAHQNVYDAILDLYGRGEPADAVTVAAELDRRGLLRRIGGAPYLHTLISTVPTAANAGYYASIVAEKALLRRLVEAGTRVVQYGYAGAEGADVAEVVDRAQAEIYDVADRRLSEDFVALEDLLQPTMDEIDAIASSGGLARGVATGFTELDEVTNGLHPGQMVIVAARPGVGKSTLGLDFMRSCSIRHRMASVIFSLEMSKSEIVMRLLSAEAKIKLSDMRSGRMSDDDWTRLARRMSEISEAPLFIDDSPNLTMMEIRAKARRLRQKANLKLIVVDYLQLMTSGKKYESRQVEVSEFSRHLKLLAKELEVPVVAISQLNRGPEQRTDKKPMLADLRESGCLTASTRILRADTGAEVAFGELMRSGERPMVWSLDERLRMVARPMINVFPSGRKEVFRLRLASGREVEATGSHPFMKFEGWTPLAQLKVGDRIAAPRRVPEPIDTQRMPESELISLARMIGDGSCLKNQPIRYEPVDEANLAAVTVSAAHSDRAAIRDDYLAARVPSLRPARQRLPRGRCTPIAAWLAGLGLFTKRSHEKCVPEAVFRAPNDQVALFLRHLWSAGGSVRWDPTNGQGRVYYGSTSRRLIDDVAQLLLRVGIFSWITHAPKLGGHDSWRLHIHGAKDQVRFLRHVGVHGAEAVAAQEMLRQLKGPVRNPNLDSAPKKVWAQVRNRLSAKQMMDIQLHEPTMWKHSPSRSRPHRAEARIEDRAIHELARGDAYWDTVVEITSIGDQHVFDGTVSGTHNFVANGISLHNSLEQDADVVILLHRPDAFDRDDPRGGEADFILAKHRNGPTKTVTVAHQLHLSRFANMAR
# [11] = system: INS1; assay: beta cell apoptosis inhibitors, cytokine rescue, dose response, luminescence, retest (AID 449756); assay type: functional, cell-based; conditions: Rattus norvegicus;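 note: cell death triggered by IL-1 beta plus TNF-alpha plus IFN-gamma mixture; protective hits raise ATP signal compared with cytokine alone wells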
# [12] = target: T6, Hexokinase HKDC1 (Homo sapiens, UniProt Q2TB90); assay: HKDC1 hexokinase inhibitors, dose response, biochemical, W721R variant (AID 504729); assay type: functional
# T6 sequence (Q2TB90 whole entry): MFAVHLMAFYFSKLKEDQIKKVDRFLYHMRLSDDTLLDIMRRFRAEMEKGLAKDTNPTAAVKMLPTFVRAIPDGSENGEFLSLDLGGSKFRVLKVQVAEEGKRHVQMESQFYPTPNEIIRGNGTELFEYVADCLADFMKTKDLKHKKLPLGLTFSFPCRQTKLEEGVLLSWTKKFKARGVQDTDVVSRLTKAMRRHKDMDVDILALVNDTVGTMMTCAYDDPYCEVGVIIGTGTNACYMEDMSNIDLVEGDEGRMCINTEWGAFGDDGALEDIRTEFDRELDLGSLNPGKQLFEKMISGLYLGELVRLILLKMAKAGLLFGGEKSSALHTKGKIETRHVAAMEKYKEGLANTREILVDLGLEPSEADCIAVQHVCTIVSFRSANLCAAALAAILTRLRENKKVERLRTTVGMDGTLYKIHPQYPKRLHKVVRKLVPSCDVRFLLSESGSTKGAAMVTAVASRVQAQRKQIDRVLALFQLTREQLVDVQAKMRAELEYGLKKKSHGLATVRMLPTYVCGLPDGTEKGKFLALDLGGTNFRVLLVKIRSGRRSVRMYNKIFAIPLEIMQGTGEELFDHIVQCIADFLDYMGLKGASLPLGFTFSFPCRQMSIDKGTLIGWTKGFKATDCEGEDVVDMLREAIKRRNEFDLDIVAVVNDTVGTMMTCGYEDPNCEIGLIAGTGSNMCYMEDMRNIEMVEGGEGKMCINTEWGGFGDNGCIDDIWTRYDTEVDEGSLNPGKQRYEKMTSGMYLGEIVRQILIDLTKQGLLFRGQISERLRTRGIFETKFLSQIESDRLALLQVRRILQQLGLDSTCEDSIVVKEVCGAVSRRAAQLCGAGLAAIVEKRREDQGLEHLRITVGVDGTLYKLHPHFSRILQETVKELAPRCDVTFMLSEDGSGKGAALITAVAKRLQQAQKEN
# [13] = system: Escherichia coli; assay: microbe, parasite or virus in culture
# [14] = system: Escherichia coli; assay: microbe, parasite or virus in culture; remark: listed apart in the source
structure (smiles),measurement,setting,value
CNC(=O)c1ncnnc1N(C)C(=O)NCc1ccccc1,IC50,[1],> 67.5 µM (inactive)
same,IC50,[2],> 67.5 µM (inactive)
N#CC(c1ccccc1)c1cccc(Cl)n1 (centres undefined),AC50,[3],1.1 µM (active)
same,AC50,[4],> 380 µM (inactive)
CCOC(=O)c1c(C)oc2c1C(=O)c1ccccc1C2=O,IC50,[5],16.1 µM (active)
same,AC50,[6],41.9 µM (active)
same,AC50,[7],3.18 µM (active)
same,EC50,[8],13.3 µM (active)
same,AC50,[9],4.44 µM (active)
same,AC50,[10],6.31 µM (active)
same,AC50,[11],3.7 µM (active)
CCC(C)C(N)C1=NC(C(=O)N[C@@H](CC(C)C)C(=O)N[C@H](CCC(=O)[O-])C(=O)N[C@H](C(=O)N[C@H]2CCCCNC(=O)[C@H](CC(N)=O)NC(=O)[C@@H](CC(=O)[O-])NC(=O)[C@H](Cc3c[nH]cn3)NC(=O)[C@@H](Cc3ccccc3)NC(=O)[C@H]([C@@H](C)CC)NC(=O)[C@@H](CCCN)NC2=O)[C@@H](C)CC)CS1.[Zn+2] (some centres undefined) (X1-L[dE]IK[dOrn]I[dF]H[dD]N; lactam 4-C),IC50,[12],2.69 µM (active)
same,AC50,[13],184 µM (active)
same,AC50,[14],38 µM (active)
